# Measurements reported in ChEMBL document CHEMBL1130751, “Synthesis and 5 alpha-reductase inhibitory activity of 8-substituted benzo[f]quinolinones derived from palladium mediated coupling reactions” (Bioorg Med Chem Lett, 1998).
# How the values were obtained:
# [1] = biological target: T1, 3-oxo-5-alpha-steroid 4-dehydrogenase 1 (Homo sapiens, UniProt P18405); assay: Inhibitory activity against Steroid 5-alpha-reductase type I enzyme based on the conversion of [3H]-T to [3H]DHT in nuclear membrane preparations from human scalp; format: cell membranes
# T1 sequence (P18405 whole entry): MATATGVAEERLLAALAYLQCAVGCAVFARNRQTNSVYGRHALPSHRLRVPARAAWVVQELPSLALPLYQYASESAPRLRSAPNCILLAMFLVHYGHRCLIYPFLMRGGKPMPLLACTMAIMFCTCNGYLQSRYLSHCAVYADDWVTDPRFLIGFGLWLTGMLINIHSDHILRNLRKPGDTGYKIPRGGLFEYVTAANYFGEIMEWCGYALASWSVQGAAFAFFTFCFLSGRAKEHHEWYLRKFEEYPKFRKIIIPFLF
# [2] = biological target: T2, 3-oxo-5-alpha-steroid 4-dehydrogenase 2 (Homo sapiens, UniProt P31213); assay: Inhibitory activity against Steroid 5-alpha-reductase type 2 as [3H]T to [3H]-DHT conversion human prostate nuclear membrane; format: tissue-based, Prostate gland
# T2 sequence (P31213 whole entry): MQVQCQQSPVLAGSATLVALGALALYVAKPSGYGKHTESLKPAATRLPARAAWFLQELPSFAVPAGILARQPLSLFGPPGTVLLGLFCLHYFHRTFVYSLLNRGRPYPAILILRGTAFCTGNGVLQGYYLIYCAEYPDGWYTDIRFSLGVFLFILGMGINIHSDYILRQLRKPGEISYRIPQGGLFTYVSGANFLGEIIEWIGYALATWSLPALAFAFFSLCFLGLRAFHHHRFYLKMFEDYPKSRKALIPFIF
# [3] = biological target: T1, 3-oxo-5-alpha-steroid 4-dehydrogenase 1; assay: Inhibitory activity against Steroid 5-alpha-reductase type 1 enzyme based on the conversion of [3H]T to [3H]-DHT in nuclear membrane preparations from human scalp; format: cell membranes
IC50 [1] [nM],IC50 [2] [nM],IC50 [3] [nM],SMILES
21,52,–,CN1C(=O)CC[C@]2(C)c3ccc(C#Cc4ccccc4)cc3CC[C@@H]12
6,1400,–,CN1C(=O)CC[C@]2(C)c3ccc(/C=C\c4ccccc4)cc3CC[C@@H]12
–,> 10000,59,CN1C(=O)CC[C@]2(C)c3ccc(-c4ccco4)cc3CC[C@@H]12
23,180,–,CN1C(=O)CC[C@]2(C)c3ccc(/C=C/c4ccccc4)cc3CC[C@@H]12
–,520,> 10000,CN1C(=O)CC[C@]2(C)c3ccc(CC(=O)Nc4ccccc4)cc3CC[C@@H]12
–,550,32,CN1C(=O)CC[C@]2(C)c3ccc(/C=C/c4ccc5ccccc5n4)cc3CC[C@@H]12
–,> 10000,> 10000,CN1C(=O)CC[C@]2(C)c3ccc(-c4cccs4)cc3CC[C@@H]12

# The next lines start with the molecule.
SMILES,IC50 [1] [nM],IC50 [2] [nM],IC50 [3] [nM]
CN1C(=O)CC[C@]2(C)c3ccc(CC(=O)O)cc3CC[C@@H]12,–,870,–
CN1C(=O)CC[C@]2(C)c3ccc(CC(N)=O)cc3CC[C@@H]12,–,> 10000,> 10000
CCN(CC)C(=O)Cc1ccc2c(c1)CC[C@H]1N(C)C(=O)CC[C@]21C,–,> 10000,> 10000
CN1C(=O)CC[C@]2(C)c3ccc(/C=C/c4cnc5ccccc5c4)cc3CC[C@@H]12,–,320,3.4
CN1C(=O)CC[C@]2(C)c3ccc(/C=C/c4cncc5ccccc45)cc3CC[C@@H]12,–,1340,63
CN1C(=O)CC[C@]2(C)c3ccc(CC(=O)NC(C)(C)C)cc3CC[C@@H]12,–,> 10000,> 10000
